Assay results as given in patent US20120165331A1, “Di/tri-aza-spiro-C9-C11alkanes” (priority 2010, published 2012).

Tests used:
human orexin 2 receptor [1] = biological target: T1, human orexin 2 receptor (Homo sapiens, UniProt O43614); assay: Radioligand binding assay ([3H]-SB649868 competition), human orexin 2 receptor; details: radioligand [3H]-SB649868; read-out: Binding hOx2R Kd
T1 construct: expressed in transfected cells
T1 sequence (O43614 1-444): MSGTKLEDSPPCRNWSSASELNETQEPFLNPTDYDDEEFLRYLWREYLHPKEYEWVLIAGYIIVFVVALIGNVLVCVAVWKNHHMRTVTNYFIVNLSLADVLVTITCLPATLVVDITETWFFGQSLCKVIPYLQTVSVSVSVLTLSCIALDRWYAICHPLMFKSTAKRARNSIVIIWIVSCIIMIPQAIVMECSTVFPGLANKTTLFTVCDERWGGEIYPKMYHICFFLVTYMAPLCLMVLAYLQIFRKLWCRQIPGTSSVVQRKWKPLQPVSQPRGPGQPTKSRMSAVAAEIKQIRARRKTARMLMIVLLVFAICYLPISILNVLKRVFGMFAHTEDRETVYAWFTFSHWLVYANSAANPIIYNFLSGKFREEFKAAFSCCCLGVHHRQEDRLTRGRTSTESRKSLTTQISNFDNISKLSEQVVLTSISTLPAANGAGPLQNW
Method: (§1) Radioligand Binding Assay
(§2) For crude cell membrane preparations, cells (CHO, Chinese hamster ovary or HEK, human embryonic kidney) expressing human orexin 1 or human orexin 2 receptors, were washed with HEPES (10 mM, pH 7.5), scraped off the culture plates with the same buffer, and centrifuged at 4° C. for 5 min at 2500×g. The cell pellet was either stored at −80° C. or used directly. Before the experiments, cell membranes were re-suspended in binding assay buffer (10 mM HEPES, 0.5% (w/v) bovine serum albumin, pH 7.5) by homogenisation with a Polytron homogeniser at 50 Hz for 20 s. Cell membranes were also used as made available by commercial providers.
(§3) Bound radioactivity was measured, and data were analysed with the program XLFIT or Graphpad Prism. Protein concentration was determined according to the Bradford/BioRad Protein Assay Kit.
(§4) In competition experiments, cell homogenates (150 μl) were incubated in assay buffer (10 mM HEPES, pH 7.5, 0.5% (w/v) bovine serum albumin, 5 mM MgCl2, 1 mMCaCl2, and tween 0.05%) for 1 h at room temperature with about 1 nM of the radioligand [^3H]-SB649868, 66 Ci/mmole, 50 μl), and with various concentrations of compounds of the invention (50 μl) in triplicates; non-specific binding was determined in the presence of almorexant (10 μM). Reactions were terminated by vacuum filtration, 3 washes of ice cold wash buffer (Tris-HCl pH 7.4/10 mM, with NaCl 154 mM). Competition data is expressed in Table 1 as Kd [μM].

human orexin 1 receptor [2] = biological target: T2, human orexin 1 receptor (Homo sapiens, UniProt O43613); assay: Calcium accumulation in cells (FLIPR), antagonism of orexin A, human orexin 1 receptor; assay type: cell-based; details: for Ki: calcium accumulation, antagonism of orexin A, Cheng-Prusoff corrected, read-out: FLIPR hOx1R Ki; for inhibition at 10 µM: measured at a concentration of 10 μM of compound, read-out: FLIPR hOx1R % inhibition
T2 construct: expressed in transfected cells
T2 sequence (O43613 1-425): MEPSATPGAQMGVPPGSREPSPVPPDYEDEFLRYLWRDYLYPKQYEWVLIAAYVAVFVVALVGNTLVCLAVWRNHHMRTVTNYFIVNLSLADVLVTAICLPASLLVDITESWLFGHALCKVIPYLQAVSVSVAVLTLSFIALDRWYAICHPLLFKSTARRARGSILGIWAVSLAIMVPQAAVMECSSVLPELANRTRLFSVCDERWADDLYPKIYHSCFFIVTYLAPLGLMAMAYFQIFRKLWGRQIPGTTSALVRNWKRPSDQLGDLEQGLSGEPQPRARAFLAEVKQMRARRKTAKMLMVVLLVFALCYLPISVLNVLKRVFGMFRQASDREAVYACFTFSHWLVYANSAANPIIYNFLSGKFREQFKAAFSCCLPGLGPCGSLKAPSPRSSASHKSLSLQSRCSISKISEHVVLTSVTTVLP

human orexin 2 receptor [3] = biological target: T1, human orexin 2 receptor; assay: Calcium accumulation in cells (FLIPR), antagonism of orexin A, human orexin 2 receptor; assay type: cell-based; details: calcium accumulation, antagonism of orexin A, Cheng-Prusoff corrected; read-out: FLIPR hOx2R Ki
human orexin 1 receptor [4] = biological target: T2, human orexin 1 receptor; assay: Radioligand binding assay ([3H]-SB649868 competition), human orexin 1 receptor; details: radioligand [3H]-SB649868; read-out: Binding hOx1R Kd
Method: as §1, §2, §3, §4

Compound	Kd (human orexin 2 receptor [1]) [nM]	Ki (human orexin 1 receptor [2]) [nM]	Ki (human orexin 2 receptor [3]) [nM]	Kd (human orexin 1 receptor [4]) [nM]	inhibition at 10 µM (human orexin 1 receptor [2]) [%]
COc1cccc(-c2oc(C)nc2CN2CCNC3(CCN(c4nccc(OC)n4)CC3)C2=O)c1 [Example 1.17, 4-((5-(3-Methoxyphenyl)-2-methyloxazol-4-yl)methyl)-9-(4-methoxypyrimidin-2-yl)-1,4,9-triazaspiro[5.5] undecan-5-one]	251	2090	92	2350	–
COc1cccc(-c2oc(C)nc2CN2CCNC3(CCN(c4nc(C)cc(OC)n4)CC3)C2=O)c1 [Example 1.18, 9-(4-Methoxy-6-methylpyrimidin-2-yl)-4-((5-(3-methoxyphenyl)-2-methyloxazol-4-yl)methyl)-1,4,9-triazaspiro[5.5] undecan-5-one]	23	119	3	219	–
COc1cccc(-c2sc(C)nc2CN2CCNC3(CCN(c4nc(C)cc(C)n4)CC3)C2=O)c1 [Example 1.24, 9-(4,6-Dimethyl-pyrimidin-2-yl)-4-((5-(3-methoxyphenyl)-2-methylthiazol-4-yl)methyl)-1,4,9-triazaspiro[5.5] undecan-5-one]	35	766	10	924	–
COc1cccc(-c2sc(C)nc2CN2CCNC3(CCN(c4nc(C)cc(OC)n4)CC3)C2=O)c1 [Example 1.26, 9-(4-Methoxy-6-methylpyrimidin-2-yl)-4-((5-(3-methoxyphenyl)-2-methylthiazol-4-yl)methyl)-1,4,9-triazaspiro[5.5] undecan-5-one]	49	391	8	352	–
COCc1cccc(-c2ocnc2CN2CCNC3(CCN(c4nc(C)cc(C)n4)CC3)C2=O)c1 [Example 1.27, 9-(4,6-Dimethyl-pyrimidin-2-yl)-4-((5-(3-(methoxymethyl)phenyl)oxazol-4-yl)methyl)-1,4,9-triazaspiro[5.5] undecan-5-one]	140	–	94	5140	34
COCc1cccc(-c2ocnc2CN2CCNC3(CCN(c4nc(C)cc(OC)n4)CC3)C2=O)c1 [Example 1.29, 9-(4-Methoxy-6-methylpyrimidin-2-yl)-4-((5-(3-(methoxymethyl)phenyl)oxazol-4-yl)methyl)-1,4,9-triazaspiro[5.5] undecan-5-one]	100	1430	75	1320	–
COCc1cccc(-c2oc(C)nc2CN2CCNC3(CCN(c4nc(C)cc(C)n4)CC3)C2=O)c1 [Example 1.30, 9-(4,6-Dimethyl-pyrimidin-2-yl)-4-((5-(3-(methoxymethyl)phenyl)-2-methyl-oxazol-4-yl)methyl)-1,4,9-triazaspiro[5.5] undecan-5-one]	114	–	29	2140	51
COc1cccc(-c2cn(C)nc2CN2CCNC3(CCN(c4nc(C)cc(C)n4)CC3)C2=O)c1 [Example 1.33, 9-(4,6-Dimethyl-pyrimidin-2-yl)-4-((4-(3-methoxyphenyl)-1-methyl-1H-pyrazol-3-yl)methyl)-1,4,9-triazaspiro[5.5] undecan-5-one]	42	1530	6	1620	–
COc1ccc2[nH]cc(CN3CCNC4(CCN(c5nc(C)cc(C)n5)CC4)C3=O)c2c1 [Example 1.34, 9-(4,6-Dimethyl-pyrimidin-2-yl)-4-((5-methoxy-1H-indol-3-yl)methyl)-1,4,9-triazaspiro[5.5] undecan-5-one]	4	494	1	234	–
COc1cccc(-c2n[nH]nc2CN2CCNC3(CCN(c4nc(C)cc(C)n4)CC3)C2=O)c1 [Example 1.39, 9-(4,6-Dimethyl-pyrimidin-2-yl)-4-((5-(3-methoxy-phenyl)-2H-1,2,3-triazol-4-yl)methyl)-1,4,9-triazaspiro[5.5] undecan-5-one]	13	304	2	231	–
Cc1cc(C#N)nc(N2CCC3(CC2)NCCN(Cc2c[nH]c4ccccc24)C3=O)n1 [Example 1.40, 2-(4-((1H-Indol-3-yl)methyl)-5-oxo-1,4,9-triazaspiro[5.5]undecan-9-yl)-6-methylpyrimidine-4-carbonitrile]	79	2810	20	5300	–
Cc1cc(C)nc(N2CCC3(CC2)NCCN(Cc2nn(C)cc2-c2cccc(C(F)(F)F)c2)C3=O)n1 [Example 1.41, 9-(4,6-Dimethyl-pyrimidin-2-yl)-4-((1-methyl-4-(3-(trifluoromethyl)phenyl)-1H-pyrazol-3-yl)methyl)-1,4,9-triazaspiro[5.5] undecan-5-one]	182	1580	16	3170	–
Cc1cc(C)nc(N2CCC3(CC2)NCCN(Cc2nn(C)cc2-c2cccc(Cl)c2)C3=O)n1 [Example 1.42, 4-((4-(3-Chlorophenyl)-1-methyl-1H-pyrazol-3-yl)methyl)-9-(4,6-dimethyl-pyrimidin-2-yl)-1,4,9-triazaspiro[5.5] undecan-5-one]	391	3280	83	6490	–
Cc1cc(C)nc(N2CCC3(CC2)NCCN(Cc2nn(C)cc2-c2cccc(OC(F)(F)F)c2)C3=O)n1 [Example 1.46, 9-(4,6-Dimethyl-pyrimidin-2-yl)-4-((1-methyl-4-(3-(trifluoro-methoxy)phenyl)-1H-pyrazol-3-yl)methyl)-1,4,9-triazaspiro[5.5] undecan-5-one]	91	2040	5	3880	–
Cc1cc(C)nc(N2CCC3(CC2)NCCN(Cc2nn(C)cc2-c2cccc(OC(C)C)c2)C3=O)n1 [Example 1.47, 9-(4,6-Dimethyl-pyrimidin-2-yl)-4-((4-(3-iso-propoxyphenyl)-1-methyl-1H-pyrazol-3-yl)methyl)-1,4,9-triazaspiro[5.5] undecan-5-one]	7	135	1	187	–
CC(=O)c1cccc(-c2cn(C)nc2CN2CCNC3(CCN(c4nc(C)cc(C)n4)CC3)C2=O)c1 [Example 1.48, 4-((4-(3-Acetylphenyl)-1-methyl-1H-pyrazol-3-yl)methyl)-9-(4,6-dimethyl-pyrimidin-2-yl)-1,4,9-triazaspiro[5.5] undecan-5-one]	99	2740	12	2270	–
Cc1cc(C)nc(N2CCC3(CC2)NCCN(Cc2nn(C)cc2-c2cccc(OCC4CC4)c2)C3=O)n1 [Example 1.52, 4-((4-(3-(Cyclo-propylmethoxy)phenyl)-1-methyl-1H-pyrazol-3-yl)methyl)-9-(4,6-dimethylpyrimidin-2-yl)-1,4,9-triazaspiro[5.5] undecan-5-one]	50	286	2.8	436	–
Cc1cc(C)nc(N2CCC3(CC2)NCCN(Cc2nn(C)cc2-c2cccc(OCC(C)C)c2)C3=O)n1 [Example 1.53, 9-(4,6-Dimethyl-pyrimidin-2-yl)-4-((4-(3-isobutoxyphenyl)-1-methyl-1H-pyrazol-3-yl)methyl)-1,4,9-triazaspiro[5.5] undecan-5-one]	45	331	7	319	–
